# From the supplement of paper PMC10307832
# Columns and labels:
# Assay in all cases: relative viability (nuclei count vs DMSO), 5 days (fraction); higher = more cells survive
# Venetoclax + Olaparib = compound: CC1(C)CCC(CN2CCN(c3ccc(C(=O)NS(=O)(=O)c4ccc(NCC5CCOCC5)c([N+](=O)[O-])c4)c(Oc4cnc5[nH]ccc5c4)c3)CC2)=C(c2ccc(Cl)cc2)C1 [Venetoclax] + O=C(c1cc(Cc2n[nH]c(=O)c3ccccc23)ccc1F)N1CCN(C(=O)C2CC2)CC1 [Olaparib] (partner 8 µM)
# Method in brief: (§1)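 Lung cancer cell lines were pin-tool dosed in 1536-well plates on the day after seeding, with either a lone drug or a fixed anchor-drug dose plus five library-drug doses (not always all listed) in √10 steps. Nuclei were counted on 4× images after 5 days. Relative viability is the ratio of treated-well to vehicle-well nuclei counts, with each value a median of duplicate plates.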
# Selumetinib + Trametinib = compound: Cn1cnc2c(F)c(Nc3ccc(Br)cc3Cl)c(C(=O)NOCCO)cc21 [Selumetinib] + CC(=O)Nc1cccc(-n2c(=O)n(C3CC3)c(=O)c3c(Nc4ccc(I)cc4F)n(C)c(=O)c(C)c32)c1 [Trametinib] (partner 0.02 µM)
# Method in brief: as §1
# Selumetinib + OSI-027 = compound: Cn1cnc2c(F)c(Nc3ccc(Br)cc3Cl)c(C(=O)NOCCO)cc21 [Selumetinib] + COc1cccc2cc(-c3nc([C@H]4CC[C@H](C(=O)O)CC4)n4ncnc(N)c34)[nH]c12 [OSI-027] (partner 0.5 µM)
# Method in brief: as §1
# Selumetinib + Crizotinib = compound: Cn1cnc2c(F)c(Nc3ccc(Br)cc3Cl)c(C(=O)NOCCO)cc21 [Selumetinib] + C[C@@H](Oc1cc(-c2cnn(C3CCNCC3)c2)cnc1N)c1c(Cl)ccc(F)c1Cl [Crizotinib] (partner 1 µM)
# Method in brief: as §1
Cell Line,relative viability (Venetoclax + Olaparib; first compound 0.01 µM),relative viability (Venetoclax + Olaparib; first compound 0.03162 µM),relative viability (Venetoclax + Olaparib; first compound 0.1 µM),relative viability (Venetoclax + Olaparib; first compound 0.3162 µM),relative viability (Venetoclax + Olaparib; first compound 1 µM),relative viability (Selumetinib + Trametinib; first compound 0.02 µM),relative viability (Selumetinib + Trametinib; first compound 0.06325 µM),relative viability (Selumetinib + Trametinib; first compound 0.2 µM),relative viability (Selumetinib + Trametinib; first compound 0.6325 µM),relative viability (Selumetinib + OSI-027; first compound 0.02 µM),relative viability (Selumetinib + OSI-027; first compound 0.06325 µM),relative viability (Selumetinib + OSI-027; first compound 0.2 µM),relative viability (Selumetinib + OSI-027; first compound 0.6325 µM),relative viability (Selumetinib + Crizotinib; first compound 0.02 µM),relative viability (Selumetinib + Crizotinib; first compound 0.06325 µM),relative viability (Selumetinib + Crizotinib; first compound 0.2 µM),relative viability (Selumetinib + Crizotinib; first compound 0.6325 µM)
PC-14,0.256,0.297,0.245,0.302,0.226,0.847,0.74,0.732,0.604,0.752,0.716,0.73,0.538,0.867,0.814,0.961,0.949
NCI-H2228,0.519,0.832,0.519,0.776,0.692,0.513,0.328,0.554,0.393,0.48,0.512,0.402,0.374,0.527,0.595,0.351,0.413
BEN,1.07,1.21,0.97,1.1,1.02,1.06,1.07,1.14,1,0.276,0.315,0.274,0.295,0.773,0.873,0.834,0.776
LOU-NH91,0.821,0.88,0.965,0.919,0.856,0.773,0.761,0.818,0.824,0.701,0.68,0.646,0.615,0.709,0.715,0.683,0.677
EKVX,0.93,0.908,0.817,0.855,0.819,0.308,0.325,0.344,0.32,0.654,0.645,0.606,0.469,0.909,0.889,0.614,0.639
NCI-H1355,0.772,0.815,0.774,0.734,0.757,0.407,0.459,0.464,0.416,0.343,0.33,0.278,0.277,1.06,1.1,0.796,0.681
NCI-H727,0.758,0.801,0.803,0.836,0.641,0.348,0.367,0.421,0.381,0.603,0.395,0.332,0.427,0.558,0.348,0.316,0.255
NCI-H1666,0.77,0.741,0.711,0.759,0.62,0.867,0.854,0.807,0.845,0.909,0.717,0.793,0.717,0.956,0.791,0.829,0.614
NCI-H2126,0.85,0.936,0.838,0.915,0.913,0.569,0.574,0.6,0.622,0.676,0.597,0.577,0.606,1.01,1,0.913,0.887
LCLC-103H,0.778,0.846,0.783,0.787,0.752,0.635,0.707,0.66,0.672,0.474,0.425,0.453,0.44,1.02,0.846,0.857,0.948
COR-L 105,0.518,0.718,0.709,0.691,0.674,0.435,0.427,0.345,0.468,0.612,0.46,0.467,0.343,0.855,0.689,0.714,0.635
HARA,0.803,0.993,,0.814,0.822,0.531,0.596,0.787,0.448,0.481,0.443,0.327,0.263,1.02,1.02,0.876,0.602
NCI-H2023,0.425,0.498,0.453,0.561,0.455,0.51,0.467,0.535,0.51,0.392,0.348,0.318,0.375,0.649,0.533,0.431,0.503
NCI-H1792,0.286,0.463,0.384,0.561,0.339,0.439,0.521,0.452,0.402,0.761,0.727,0.67,0.611,0.986,0.86,0.816,0.682
LXF-289,1.07,1.09,1.1,0.993,0.94,0.717,0.616,0.673,0.701,0.796,0.73,0.648,0.519,0.872,0.7,0.664,0.616
ChaGo-K-1,0.341,0.48,0.437,0.5,0.439,0.908,0.891,0.897,0.92,0.562,0.504,0.524,0.528,1.12,1.18,1.11,1.17
